Experimental data: BindingDB's records for doi:10.1021/ml300038t (2012)

Molecular target: T1, 4,4'-diapophytoene synthase (Staphylococcus aureus, UniProt A9JQL9)
T1 sequence (A9JQL9 whole entry): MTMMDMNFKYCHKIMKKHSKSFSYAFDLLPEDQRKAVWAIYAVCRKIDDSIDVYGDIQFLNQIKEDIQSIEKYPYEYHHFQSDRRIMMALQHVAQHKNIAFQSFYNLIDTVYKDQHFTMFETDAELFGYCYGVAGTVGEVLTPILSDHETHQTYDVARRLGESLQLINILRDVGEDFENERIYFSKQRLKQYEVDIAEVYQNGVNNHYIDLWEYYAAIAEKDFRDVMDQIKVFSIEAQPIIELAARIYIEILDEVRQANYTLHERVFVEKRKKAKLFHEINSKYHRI
Experiment: Inhibition of Staphylococcus aureus His6-tagged CrtM expressed in Escherichia coli BL21(DE3) using Farnesyl pyrophosphate as substrate incubated for 30 mins prior to substrate addition by continuous spectrophotometric assay

Row | IC50 [µM] | Compound
1 | > 300 | CCCCCCOc1cccc(CCCNC(=O)CC(=O)C(=O)O)c1
2 | > 300 | CCCCCCCCOc1ccc(C(=O)CC(=O)C(=O)O)cc1
